# Laboratory results published in ChEMBL document CHEMBL1201862, “PubChem BioAssay data set” (2004).
#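 Tested at 5 concentrations; 48 h exposure; 96-well plates; endpoints linearly interpolated, else capped at highest concentration. GI50 = concentration required for 50% inhibition of growth.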 Calls of active or inactive are those of the source. Rule as the data show it: active = GI50 up to about 1.1 µM and inactive = higher.
# Key:
# Assay in all cases: NCI tumour cell line growth inhibition, 48 h
# KM12 = system: KM12
# DMS-273 = system: DMS-273
# NCI-H460 = system: NCI-H460
# CCRF-CEM = system: CCRF-CEM
# LXFL 529 = system: LXFL 529
# HCT-116 = system: HCT-116
# HOP-18 = system: HOP-18
# SR = system: SR
# HOP-62 = system: HOP-62
# NCI-H226 = system: NCI-H226
# M19-MEL = system: M19-MEL
# XF498 = system: XF498
# MOLT-4 = system: MOLT-4
# OVCAR-8 = system: OVCAR-8
# SW-620 = system: SW-620
# HL-60 = system: HL-60
# RPMI-8226 = system: RPMI-8226
# HCC 2998 = system: HCC 2998
# KM-20L2 = system: KM-20L2
# HCT-15 = system: HCT-15
# A549 = system: A549
# SF-539 = system: SF-539
# OVCAR-3 = system: OVCAR-3
# SK-MEL-2 = system: SK-MEL-2
# SK-MEL-28 = system: SK-MEL-28
# NCI-H23 = system: NCI-H23
# SK-MEL-5 = system: SK-MEL-5
# SNB-19 = system: SNB-19
# COLO 205 = system: COLO 205
# UO-31 = system: UO-31
# LOX IMVI = system: LOX IMVI
# EKVX = system: EKVX
# DLD-1 = system: DLD-1
# OVCAR-5 = system: OVCAR-5
# K562 = system: K562
# CAKI-1 = system: CAKI-1
# RXF 393 = system: RXF 393
# M14 = system: M14
# SF-268 = system: SF-268
# NCI-H522 = system: NCI-H522
# TK-10 = system: TK-10
# HT-29 = system: HT-29
# OVCAR-4 = system: OVCAR-4
# SN12C = system: SN12C
# DMS-114 = system: DMS-114
# Malme-3M = system: Malme-3M
# ACHN = system: ACHN
# UACC-257 = system: UACC-257
# SNB-78 = system: SNB-78
# IGROV-1 = system: IGROV-1
# SF-295 = system: SF-295
# SNB-75 = system: SNB-75
# U-251 = system: U-251
# SK-OV-3 = system: SK-OV-3
# UACC-62 = system: UACC-62
# A498 = system: A498
# 786-0 = system: 786-0
# HOP-92 = system: HOP-92
compound,measurement,setting,value
N#CC(NC12CC3CC(CC(C3)C1)C2)c1ccccc1C(F)(F)F (configuration not stated),GI50,KM12,> 100 µM (inactive)
same,GI50,DMS-273,> 100 µM (inactive)
same,GI50,NCI-H460,> 100 µM (inactive)
same,GI50,CCRF-CEM,> 100 µM (inactive)
same,GI50,LXFL 529,> 100 µM (inactive)
same,GI50,HCT-116,> 100 µM (inactive)
same,GI50,HOP-18,> 100 µM (inactive)
same,GI50,SR,> 100 µM (inactive)
same,GI50,HOP-62,> 100 µM (inactive)
same,GI50,NCI-H226,> 100 µM (inactive)
same,GI50,M19-MEL,> 100 µM (inactive)
same,GI50,XF498,> 100 µM (inactive)
same,GI50,MOLT-4,> 100 µM (inactive)
same,GI50,OVCAR-8,> 100 µM (inactive)
same,GI50,SW-620,> 100 µM (inactive)
same,GI50,HL-60,> 100 µM (inactive)
same,GI50,RPMI-8226,> 100 µM (inactive)
same,GI50,HCC 2998,> 100 µM (inactive)
same,GI50,KM-20L2,> 100 µM (inactive)
same,GI50,HCT-15,> 100 µM
same,GI50,A549,> 100 µM (inactive)
same,GI50,SF-539,> 100 µM (inactive)
same,GI50,OVCAR-3,> 100 µM (inactive)
same,GI50,SK-MEL-2,> 100 µM (inactive)
same,GI50,SK-MEL-28,> 100 µM (inactive)
same,GI50,NCI-H23,> 100 µM (inactive)
same,GI50,SK-MEL-5,> 100 µM (inactive)
same,GI50,SNB-19,> 100 µM (inactive)
same,GI50,COLO 205,> 100 µM (inactive)
same,GI50,UO-31,> 100 µM (inactive)
same,GI50,LOX IMVI,> 100 µM (inactive)
same,GI50,EKVX,> 100 µM (inactive)
same,GI50,DLD-1,> 100 µM (inactive)
same,GI50,OVCAR-5,> 100 µM (inactive)
same,GI50,K562,> 100 µM (inactive)
same,GI50,CAKI-1,> 100 µM (inactive)
same,GI50,RXF 393,> 100 µM (inactive)
same,GI50,M14,> 100 µM (inactive)
same,GI50,SF-268,> 100 µM (inactive)
same,GI50,NCI-H522,> 100 µM (inactive)
same,GI50,TK-10,> 100 µM (inactive)
same,GI50,HT-29,> 100 µM (inactive)
same,GI50,OVCAR-4,> 100 µM (inactive)
same,GI50,SN12C,> 100 µM (inactive)
same,GI50,DMS-114,> 100 µM (inactive)
same,GI50,Malme-3M,> 100 µM (inactive)
same,GI50,ACHN,> 100 µM (inactive)
NC1C=NNC1=O (configuration not stated),GI50,KM12,> 100 µM (inactive)
same,GI50,DMS-273,> 100 µM (inactive)
same,GI50,UACC-257,> 100 µM (inactive)
same,GI50,CCRF-CEM,> 100 µM (inactive)
same,GI50,LXFL 529,> 100 µM (inactive)
same,GI50,HOP-18,< 0.01 µM (active)
same,GI50,XF498,> 100 µM (inactive)
same,GI50,MOLT-4,> 100 µM (inactive)
same,GI50,OVCAR-8,> 100 µM (inactive)
same,GI50,SW-620,> 100 µM (inactive)
same,GI50,SNB-78,> 100 µM (inactive)
same,GI50,IGROV-1,> 100 µM (inactive)
same,GI50,HL-60,> 100 µM (inactive)
same,GI50,RPMI-8226,> 100 µM (inactive)
same,GI50,HCC 2998,> 100 µM (inactive)
same,GI50,SF-295,> 100 µM (inactive)
same,GI50,KM-20L2,> 100 µM (inactive)
same,GI50,HCT-15,> 100 µM
same,GI50,A549,> 100 µM (inactive)
same,GI50,SF-539,> 100 µM (inactive)
same,GI50,SK-MEL-2,> 100 µM (inactive)
same,GI50,SK-MEL-28,> 100 µM (inactive)
same,GI50,SNB-75,> 100 µM (inactive)
same,GI50,U-251,> 100 µM (inactive)
same,GI50,SK-OV-3,> 100 µM (inactive)
same,GI50,NCI-H23,> 100 µM (inactive)
same,GI50,SK-MEL-5,> 100 µM (inactive)
same,GI50,SNB-19,> 100 µM (inactive)
same,GI50,COLO 205,> 100 µM (inactive)
same,GI50,UO-31,> 100 µM (inactive)
same,GI50,LOX IMVI,> 100 µM (inactive)
same,GI50,EKVX,> 100 µM (inactive)
same,GI50,DLD-1,> 100 µM (inactive)
same,GI50,OVCAR-5,> 100 µM (inactive)
same,GI50,K562,> 100 µM (inactive)
same,GI50,CAKI-1,> 100 µM (inactive)
same,GI50,RXF 393,> 100 µM (inactive)
same,GI50,M14,> 100 µM (inactive)
same,GI50,SF-268,> 100 µM (inactive)
same,GI50,NCI-H522,> 100 µM (inactive)
same,GI50,TK-10,> 100 µM (inactive)
same,GI50,HT-29,> 100 µM (inactive)
same,GI50,OVCAR-4,> 100 µM (inactive)
same,GI50,SN12C,> 100 µM (inactive)
same,GI50,DMS-114,> 100 µM (inactive)
same,GI50,Malme-3M,> 100 µM (inactive)
same,GI50,UACC-62,> 100 µM (inactive)
same,GI50,ACHN,> 100 µM (inactive)
CC(C)OP(=O)(OC(C)C)/C(=N/Nc1ccc([N+](=O)[O-])cc1)NCCO,GI50,KM12,> 100 µM (inactive)
same,GI50,DMS-273,> 100 µM (inactive)
same,GI50,UACC-257,> 100 µM (inactive)
same,GI50,NCI-H460,> 100 µM (inactive)
same,GI50,CCRF-CEM,> 100 µM (inactive)
same,GI50,LXFL 529,38.4 µM (inactive)
same,GI50,HCT-116,> 100 µM (inactive)
same,GI50,SR,> 100 µM (inactive)
same,GI50,A498,3.15 µM (inactive)
same,GI50,HOP-62,> 100 µM (inactive)
same,GI50,NCI-H226,> 100 µM (inactive)
same,GI50,M19-MEL,> 100 µM (inactive)
same,GI50,XF498,> 100 µM (inactive)
same,GI50,MOLT-4,48.9 µM (inactive)
same,GI50,OVCAR-8,> 100 µM (inactive)
same,GI50,SW-620,> 100 µM (inactive)
same,GI50,SNB-78,99.8 µM (inactive)
same,GI50,HL-60,42.7 µM (inactive)
same,GI50,RPMI-8226,> 100 µM (inactive)
same,GI50,HCC 2998,> 100 µM (inactive)
same,GI50,KM-20L2,85.7 µM (inactive)
same,GI50,HCT-15,72.8 µM
same,GI50,A549,74.8 µM (inactive)
same,GI50,786-0,> 100 µM (inactive)
same,GI50,SF-539,> 100 µM (inactive)
same,GI50,OVCAR-3,> 100 µM (inactive)
same,GI50,SK-MEL-2,> 100 µM (inactive)
same,GI50,SK-MEL-28,> 100 µM (inactive)
same,GI50,SNB-75,> 100 µM (inactive)
same,GI50,U-251,> 100 µM (inactive)
same,GI50,NCI-H23,> 100 µM (inactive)
same,GI50,SK-MEL-5,> 100 µM (inactive)
same,GI50,SNB-19,> 100 µM (inactive)
same,GI50,COLO 205,> 100 µM (inactive)
same,GI50,UO-31,> 100 µM (inactive)
same,GI50,LOX IMVI,56.1 µM (inactive)
same,GI50,EKVX,> 100 µM (inactive)
same,GI50,DLD-1,> 100 µM (inactive)
same,GI50,OVCAR-5,> 100 µM (inactive)
same,GI50,K562,71.8 µM (inactive)
same,GI50,CAKI-1,> 100 µM (inactive)
same,GI50,M14,> 100 µM (inactive)
same,GI50,SF-268,> 100 µM (inactive)
same,GI50,NCI-H522,> 100 µM (inactive)
same,GI50,TK-10,> 100 µM (inactive)
same,GI50,OVCAR-4,> 100 µM (inactive)
same,GI50,SN12C,> 100 µM (inactive)
same,GI50,DMS-114,90.6 µM (inactive)
same,GI50,Malme-3M,> 100 µM (inactive)
same,GI50,UACC-62,26.2 µM (inactive)
same,GI50,ACHN,54.1 µM (inactive)
same,GI50,HOP-92,64.1 µM (inactive)
